In the first assay the target is T1, human GPR139 (Homo sapiens, UniProt Q6DWJ6).
T1 construct: expressed in transfected cells; host or cells: CHO-TREx (Life Technologies) cells, expression induced with doxycycline
T1 sequence (Q6DWJ6 1-353): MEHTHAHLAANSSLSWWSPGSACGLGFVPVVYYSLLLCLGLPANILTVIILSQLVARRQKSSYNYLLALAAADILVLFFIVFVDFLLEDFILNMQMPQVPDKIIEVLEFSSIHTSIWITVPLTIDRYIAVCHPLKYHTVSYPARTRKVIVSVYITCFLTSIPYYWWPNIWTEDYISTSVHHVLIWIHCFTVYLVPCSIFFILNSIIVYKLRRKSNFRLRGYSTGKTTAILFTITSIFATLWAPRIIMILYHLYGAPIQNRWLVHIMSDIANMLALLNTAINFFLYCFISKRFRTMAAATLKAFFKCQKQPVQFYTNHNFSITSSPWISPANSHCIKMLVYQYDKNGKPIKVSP
In words: Inhibition rate of the amount of IP1 in GPR139-expressed CHO cells (inverse agonist assay, Test Example 2). In kind it is cell-based. To be noted: CHO, relative value, inhibition rate of Example Compound 2 in Test Example 1 defined as 100%. The gist of the method:
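CHO-TREx cells with doxycycline-inducible human GPR139 (2 μg/mL, 17 h) were incubated with compound at 2000 cells/well for 40 min at 37° C. IP1 quantified by HTRF (665/615 nm ratio ×10000); inhibition rate expressed relative to a reference compound defined as […].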
As usually defined, the inhibition is the drop in the measured response relative to a control, in per cent. For the compound `CCn1cc(Cn2c(C)c(C)n(-c3cc(C(F)(F)F)cc(N4CCO[C@H](C)C4)n3)c2=O)cn1` [Example 60, 1-[(1-Ethyl-1H-pyrazole-4-yl)methyl]-4,5-dimethyl-3-{6-[(2R)-2-methylmorpholine-4-yl]-4-(trifluoromethyl)pyridine-2-yl}-1,3-dihydro-2H-imidazole-2-one], the inhibition at 30 µM stood at 101%.

As to `CCn1cc(Cn2cc(C)n(-c3cc(N4CCC(F)(F)CC4)cc(C(F)(F)F)c3)c2=O)cn1` [Example 19, 3-[3-(4,4-difluoropiperidin-1-yl)-5-(trifluoromethyl)phenyl]-1-[(1-ethyl-1H-pyrazol-4-yl)methyl]-4-methyl-1,3-dihydro-2H-imidazol-2-one], the inhibition at 30 µM came out at 100%.

Consider `CCn1cc(Cn2cc(C)n(-c3cc(C4CC4)c(F)c(N4CCO[C@H](C)C4)c3)c2=O)cn1` [Example 160, 3-{3-cyclopropyl-4-fluoro-5-[(2R)-2-methylmorpholin-4-yl]phenyl}-1-[(1-ethyl-1H-pyrazol-4-yl)methyl]-4-methyl-1,3-dihydro-2H-imidazol-2-one], for which the inhibition at 30 µM came out at 98%.

Turning to `CCn1cc(Cn2c(C)nn(-c3cc(N(C)C4CCOCC4)cc(C(F)(F)F)c3F)c2=O)cn1` [Example 95, 4-[(1-ethyl-1H-pyrazol-4-yl)methyl]-2-{2-fluoro-5-[methyl(oxan-4-yl)amino]-3-(trifluoromethyl)phenyl}-5-methyl-2,4-dihydro-3H-1,2,4-triazol-3-one], the inhibition at 30 µM came out at 100%.

On to `CCn1cc(Cn2ccn(-c3cc(N4C[C@@H](C)O[C@H](C)C4)cc(C(F)(F)F)c3F)c2=O)cn1` [Example 34, 1-{5-[(2R,6R)-2,6-dimethylmorpholin-4-yl]-2-fluoro-3-(trifluoromethyl)phenyl}-3-[(1-ethyl-1H-pyrazol-4-yl)methyl]-1,3-dihydro-2H-imidazol-2-one], for which the inhibition at 30 µM was found to be 100%.

On to `CCn1cc(Cn2ccn(-c3cc(N(C)C4CCOCC4)cc(C(C)(C)F)c3F)c2=O)cn1` [Example 122, 1-[(1-ethyl-1H-pyrazol-4-yl)methyl]-3-{2-fluoro-3-(2-fluoropropan-2-yl)-5-[methyl(oxan-4-yl)amino]phenyl}-1,3-dihydro-2H-imidazol-2-one], for which the inhibition at 30 µM turned out to be 103%.

Turning to `CCn1cc(Cn2ccn(-c3cc(N4C[C@@H](C)O[C@@H](C)C4)cc(C(F)(F)F)c3F)c2=O)cn1` [Example 31, 1-{5-[(2R,6S)-2,6-dimethylmorpholin-4-yl]-2-fluoro-3-(trifluoromethyl)phenyl}-3-[(1-ethyl-1H-pyrazol-4-yl)methyl]-1,3-dihydro-2H-imidazol-2-one], the inhibition at 30 µM turned out to be 100%.

For `CCn1cc(Cn2cc(C)n(-c3nc(N4CCO[C@H](C)C4)cc(C(F)(F)F)n3)c2=O)cn1` [Example 124, 1-[(1-ethyl-1H-pyrazol-4-yl)methyl]-4-methyl-3-{4-[(2R)-2-methylmorpholin-4-yl]-6-(trifluoromethyl)pyrimidin-2-yl}-1,3-dihydro-2H-imidazol-2-one], the inhibition at 30 µM was determined as 103%.

As to `CC(C)n1cc(Cn2ccn(-c3cc(N(C)C4CCOCC4)cc(C(F)(F)F)c3F)c2=O)cn1` [Example 61, 1-{2-fluoro-5-[methyl(oxan-4-yl)amino]-3-(trifluoromethyl)phenyl}-3-{[1-(propan-2-yl)-1H-pyrazol-4-yl]methyl}-1,3-dihydro-2H-imidazol-2-one], the inhibition at 30 µM worked out at 102%.

With `CCn1cc(Cn2cc(C)n(-c3cc(OC4CCOCC4)cc(C(F)(F)F)c3)c2=O)cn1` [Example 6, 1-[(1-ethyl-1H-pyrazol-4-yl)methyl]-4-methyl-3-{3-[(oxan-4-yl)oxy]-5-(trifluoromethyl)phenyl}-1,3-dihydro-2H-imidazol-2-one], the inhibition at 30 µM was determined as 102%.

For `Cc1cn(-c2nc(N3CCO[C@H](C)C3)cc(C(F)(F)F)c2Cl)c(=O)n1Cc1cnn(C(C)C)c1` [Example 85, 1-{3-chloro-6-[(2R)-2-methylmorpholin-4-yl]-4-(trifluoromethyl)pyridin-2-yl}-4-methyl-3-{[1-(propan-2-yl)-1H-pyrazol-4-yl]methyl}-1,3-dihydro-2H-imidazol-2-one], the inhibition at 30 µM came out at 97%.

On to `CCn1cc(Cn2cc(C)n(-c3cc(N4CCOC(C)(C)C4)cc(C(F)(F)F)c3)c2=O)cn1` [Example 29, 3-[3-(2,2-dimethylmorpholin-4-yl)-5-(trifluoromethyl)phenyl]-1-[(1-ethyl-1H-pyrazol-4-yl)methyl]-4-methyl-1,3-dihydro-2H-imidazol-2-one], for which the inhibition at 30 µM worked out at 99%.

In the case of `CC(C)n1cc(Cn2ccn(-c3nc(NCC4(F)CCC4)cc(C(F)(F)F)c3F)c2=O)cn1` [Example 133, 1-[3-fluoro-6-{[(1-fluorocyclobutyl)methyl]amino}-4-(trifluoromethyl)pyridin-2-yl]-3-{[1-(propan-2-yl)-1H-pyrazol-4-yl]methyl}-1,3-dihydro-2H-imidazol-2-one], the inhibition at 30 µM worked out at 99%.

`CCn1cc(Cn2ccn(-c3cc(N4CCC(F)(F)CC4)cc(C(F)(F)F)c3F)c2=O)cn1` [Example 36, 1-[5-(4,4-difluoropiperidin-1-yl)-2-fluoro-3-(trifluoromethyl)phenyl]-3-[(1-ethyl-1H-pyrazol-4-yl)methyl]-1,3-dihydro-2H-imidazol-2-one]: the inhibition at 30 µM was found to be 101%.

For the compound `CCn1cc(Cn2cc(C)n(-c3cc(OCC4(F)CC4)cc(C(F)(F)F)c3)c2=O)cn1` [Example 56, 1-[(1-ethyl-1H-pyrazol-4-yl)methyl]-3-{3-[(1-fluorocyclopropyl)methoxy]-5-(trifluoromethyl)phenyl}-4-methyl-1,3-dihydro-2H-imidazol-2-one], the inhibition at 30 µM stood at 98%.

Regarding `CCn1cc(Cn2c(C)c(C)n(-c3cc(C(F)(F)F)c(F)c(N4CCO[C@H](C)C4)n3)c2=O)cn1` [Example 150, 1-[(1-ethyl-1H-pyrazol-4-yl)methyl]-3-{5-fluoro-6-[(2R)-2-methylmorpholin-4-yl]-4-(trifluoromethyl)pyridin-2-yl}-4,5-dimethyl-1,3-dihydro-2H-imidazol-2-one], the inhibition at 30 µM is 101%.

On to `CCn1cc(Cn2cc(C)n(-c3cc(C4CC4)cc(N4CCO[C@H](C)C4)c3)c2=O)cn1` [Example 104, 3-{3-cyclopropyl-5-[(2R)-2-methylmorpholin-4-yl]phenyl}-1-[(1-ethyl-1H-pyrazol-4-yl)methyl]-4-methyl-1,3-dihydro-2H-imidazol-2-one], for which the inhibition at 30 µM came to 104%.

Turning to `Cc1c(C)n(-c2cc(C(F)F)cc(N(C)C3CCOCC3)c2)c(=O)n1Cc1cnn(C(C)C)c1` [Example 76, 1-{3-(difluoromethyl)-5-[methyl(oxan-4-yl)amino]phenyl}-4,5-dimethyl-3-{[1-(propan-2-yl)-1H-pyrazol-4-yl]methyl}-1,3-dihydro-2H-imidazol-2-one], the inhibition at 30 µM was determined as 97%.

With `CCn1cc(Cn2c(C)cn(-c3cc(N4CCC(F)(F)CC4)cc(Cl)c3F)c2=O)cn1` [Example 167, 1-[3-chloro-5-(4,4-difluoropiperidin-1-yl)-2-fluorophenyl]-3-[(1-ethyl-1H-pyrazol-4-yl)methyl]-4-methyl-1,3-dihydro-2H-imidazol-2-one], the inhibition at 30 µM was determined as 97%.

`Cc1cn(Cc2cnn(C(C)C)c2)c(=O)n1-c1cc(C2CC2)cc(N2CCO[C@H](C)C2)n1` [Example 126, 3-{4-cyclopropyl-6-[(2R)-2-methylmorpholin-4-yl]pyridin-2-yl}-4-methyl-1-{[1-(propan-2-yl)-1H-pyrazol-4-yl]methyl}-1,3-dihydro-2H-imidazol-2-one]: the inhibition at 30 µM was determined as 100%.

`CCn1cc(Cn2cc(C)n(-c3cc(N(C)C4CCOCC4)cc(C(F)(F)F)c3)c2=O)cn1` [Example 38, 1-[(1-ethyl-1H-pyrazol-4-yl)methyl]-4-methyl-3-{3-[methyl(oxan-4-yl)amino]-5-(trifluoromethyl)phenyl}-1,3-dihydro-2H-imidazol-2-one]: the inhibition at 30 µM came to 99%.

`CCn1cc(Cn2cc(C)n(-c3cc(C(F)(F)F)c(F)c(N4CCO[C@H](C)C4)n3)c2=O)cn1` [Example 149, 1-[(1-ethyl-1H-pyrazol-4-yl)methyl]-3-{5-fluoro-6-[(2R)-2-methylmorpholin-4-yl]-4-(trifluoromethyl)pyridin-2-yl}-4-methyl-1,3-dihydro-2H-imidazol-2-one]: the inhibition at 30 µM was determined as 101%.

Take `CCn1cc(Cn2ccn(-c3cc(N4CCO[C@@H](C)C4)cc(C(F)(F)F)c3F)c2=O)cn1` [Example 11, 1-[(1-ethyl-1H-pyrazol-4-yl)methyl]-3-{2-fluoro-5-[(2S)-2-methylmorpholin-4-yl]-3-(trifluoromethyl)phenyl}-1,3-dihydro-2H-imidazol-2-one]: the inhibition at 30 µM turned out to be 98%.

Consider `Cc1cn(-c2nc(N3CCO[C@H](C)C3)cc(C(F)(F)F)c2F)c(=O)n1Cc1cnn(C(C)C)c1` [Example 64, 1-{3-fluoro-6-[(2R)-2-methylmorpholin-4-yl]-4-(trifluoromethyl)pyridin-2-yl}-4-methyl-3-{[1-(propan-2-yl)-1H-pyrazol-4-yl]methyl}-1,3-dihydro-2H-imidazol-2-one], for which the inhibition at 30 µM stood at 98%.

Still in this assay, the particulars now being: relative value, inhibition rate of Example Compound 2 in Test Example 1 defined as 100%, 30 µM.
On to `CCn1cc(Cn2cc(C)n(-c3cc(C(F)(F)F)cc(OCC4CCCO4)n3)c2=O)cn1` (stereo not shown) [Example 109, 1-[(1-ethyl-1H-pyrazol-4-yl)methyl]-4-methyl-3-{6-[(oxolan-2-yl)methoxy]-4-(trifluoromethyl)pyridin-2-yl}-1,3-dihydro-2H-imidazol-2-one], for which the “Inhibition Rate at 30 μM” value is on record as 101%.
